According to US6750217B2, “Benzenesulfonamide derivatives and their use as MEK inhibitors” (Warner-Lambert Company, priority 1999, dated 2004):

Tests used:
[1] = target: GST-MEK (p45MEK) / GST-MAPK (p44MAP kinase) (Homo sapiens, UniProt Q02750); assay: APK IC50; cascade assay for inhibitors of the MAP kinase pathway; assay type: biochemical
Method: According to one aspect of the invention, the compounds are MEK inhibitors. MEK inhibition assays include the cascade assay for inhibitors of MAP kinase pathway described at column 6, line 36 to column 7, line 4 of U.S. Pat. No. 5,525,625 and the in vitro MEK assay at column 7, lines 4-27 of the same patent, the entire disclosure of which is incorporated by reference (see also Examples 5-10 below).
Incorporation of ^32P into myelin basic protein (MBP) is assayed in the presence of a glutathione S-transferase fusion protein containing p44MAP kinase (GST-MAPK) and a glutathione S-transferase fusion protein containing p45MEK (GST-MEK). The assay solution contains 20 mM HEPES, pH 7.4, 10 mM MgCl2, 1 mM MnCl2, 1 mM EGTA, 50,μM [γ-^32P]ATP, 10 μg GST-MEK, 0.5 μg GST-MAPK and 40 μg MBP in a final volume of 100 μL. Reactions are stopped after 20 minutes by addition of trichloroacetic acid and filtered through a GF/C filter mat. ^32P retained on the filter mat is determined using a 120S Betaplate. Compounds are assessed at 10 μM for ability to inhibit incorporation of ^32P.
To ascertain whether compounds are inhibiting GST-MEK or GST MAPK, two additional protocols are employed. In the first protocol, compounds are added to tubes containing GST-MEK, followed by addition of GST-MAPK, MBP and [β-^32P]ATP. In the second protocol, compounds are added to tubes containing both GST-MEK and GST-MAPK, followed by MBP and [β-^32P]ATP.
Compounds that show activity in both protocols are scored as MAPK inhibitors, while compounds showing activity in only the first protocol are scored as MEK inhibitors.

C26 Cells = assay: C26 Cells; assay type: cell-based

GST-MEK (p45MEK) / GST-MAPK (p44MAP kinase), sequence (Q02750 whole entry): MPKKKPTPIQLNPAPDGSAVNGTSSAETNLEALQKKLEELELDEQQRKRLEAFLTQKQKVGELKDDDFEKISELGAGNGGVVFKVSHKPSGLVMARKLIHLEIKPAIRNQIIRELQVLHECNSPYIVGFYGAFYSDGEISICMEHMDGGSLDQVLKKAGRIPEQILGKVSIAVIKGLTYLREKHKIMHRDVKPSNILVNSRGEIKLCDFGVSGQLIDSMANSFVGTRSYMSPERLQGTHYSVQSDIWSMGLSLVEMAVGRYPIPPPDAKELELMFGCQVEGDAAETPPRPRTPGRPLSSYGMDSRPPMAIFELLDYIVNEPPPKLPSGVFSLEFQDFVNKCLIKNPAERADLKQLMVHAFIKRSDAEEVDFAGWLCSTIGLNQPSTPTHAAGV

| Structure (SMILES) | IC50 [1] | IC50 (C26 Cells) | melting point |
| --- | --- | --- | --- |
| NS(=O)(=O)c1cc(C(=O)NOCC2CC2)c(Nc2ccc(I)cc2Cl)c(F)c1F [PD 219622, 2-(2-Chloro-4-iodo-phenylamino)-N-cyclopropylmethoxy-3,4-difluoro-5-sulfamoyl-benzamide] | 186 nM | 1600 nM | 219 to 227 °C (dec.) |
| COC(=O)c1cc(S(=O)(=O)N(C)C)c(F)c(F)c1Nc1ccc(I)cc1Cl [PD 193846, 2-(2-Chloro-4-iodo-phenlylamino)-5-dimethylsulfamoyl-3,4-difluoro-benzoic acid methyl ester] | 222 nM | – | – |
| CN(C)S(=O)(=O)c1cc(C(=O)NOCC2CC2)c(Nc2ccc(I)cc2Cl)c(F)c1F [PD 250253, 2-(2-Chloro-4-iodo-phenylamino)-N-cyclopropylmethoxy-5-dimethylsulfamoyl-3,4-difluoro-benzamide] | 936 nM | – | 222 to 225 °C (dec.) |
| COc1ccc(CN(Cc2ccc(OC)cc2)S(=O)(=O)c2cc(C(=O)NOCC3CC3)c(Nc3ccc(I)cc3Cl)c(F)c2F)cc1 [PD 218774, 5-[Bis-(4-methoxy-benzyl)-sulfamoyl]-2-(2-chloro-4-iodo-phenylamino)-N-cyclopropylmethoxy-3,4-difluoro-benzamide] | > 3000 nM | – | – |
| Cc1cc(I)ccc1Nc1c(C(=O)NOCC2CC2)cc(S(=O)(=O)N(C)C)c(F)c1F [PD 252745, N-Cyclopropylmethoxy-5-dimethylsulfamoyl-3,4-difluoro-2-(4-iodo-2-methyl-phenylamino)-benzamide] | 3700 nM | – | 171 to 172 °C |
| NS(=O)(=O)c1cc(C(=O)NO)c(Nc2ccc(I)cc2Cl)c(F)c1F [PD 224213, 2-(2-Chloro-4-iodo-phenylamino)-3,4-difluoro-N-hydroxy-5-sulfamoyl-benzamide] | 122 nM | 9100 nM | 230 to 236 °C (dec.) |

Now from value to molecule:

| IC50 [1] | IC50 (C26 Cells) | melting point | Structure (SMILES) |
| --- | --- | --- | --- |
| 283 nM | > 10000 nM | – | CN(C)S(=O)(=O)c1cc(C(=O)O)c(Nc2ccc(I)cc2Cl)c(F)c1F [PD 224339, 2-(2-Chloro-4-iodo-phenylamino)-5-dimethylsulfamoyl-3,4-difluoro-benzoic acid] |
| > 3000 nM | – | – | CN(Cc1cccnc1)S(=O)(=O)c1cc(C(=O)O)c(Nc2ccc(I)cc2Cl)c(F)c1F [PD 219795, 2-(2-Chloro-4-iodo-phenylamino)-3,4-difluoro-5-(methyl-pyridin-3-ylmethyl-sulfamoyl)-benzoic acid] |
| 441 nM | > 10000 nM | – | Cc1cc(I)ccc1Nc1c(C(=O)O)cc(S(=O)(=O)N(C)C)c(F)c1F [PD 224340, 5-Dimethylsulfamoyl-3,4-difluoro-2-(4-iodo-2-methyl-phenylamino)-benzoic acid] |
| 781 nM | – | 295 to 296 °C (dec.) | NS(=O)(=O)c1cc(C(=O)O)c(Nc2ccc(I)cc2Cl)c(F)c1F [PD 215730, 2-(2-Chloro-4-iodo-phenylamino)-3,4-difluoro-5-sulfamoyl-benzoic acid] |
